Results taken from patent publication US11292807B2 (OCEANS LTD., priority 2015, dated 2022).
Read-outs that look alike come from different tables or passages of the source.

Key:
A549 (lung carcinoma) = experiment: CIMA assay (colorimetric indicator of metabolic activity), cell viability, A549
Method: (§1) Stock solutions of the extracts were prepared in dimethylsulfoxide (DMSO) at 10 mg/mL and stored in 200 μl aliquots at −20° C. until analysis. This preparation ensured that the DMSO delivered to cells in culture never exceeded 1%.
(§2) Prepared extracts were assessed following chronic exposure conditions in which cells were seeded at 2×10^3 cells/well (96 well-plate) and incubated with test compounds for 72 h. Each compound was evaluated over a range of concentrations (0, 10, 25, 50 or 100 μg/ml). Cell proliferation was initially assessed using a standard colorimetric indicator of metabolic activity (CIMA) assay. In this assay, tetrazole reduction was evaluated as a measure of metabolic function that evaluates mitochondrial activity to determine the extent of cell proliferation within a culture. This assay is based on the reduction of yellow tetrazolium salt to purple formazan by mitochondrial reductases enzyme in viable cells, resulting in a color changed that confers a change in absorbance.

[1] = tested on: THP-1 (acute monocytic leukemia); experiment: CIMA assay, cell viability, THP-1
Method: as §1, §2

[2] = tested on: U373 (glioblastoma-astrocytoma); experiment: CIMA assay, cell viability, U373
[3] = tested on: SKOV3 (ovarian adenocarcinoma); experiment: CIMA assay, cell viability, SKOV3
MDA-MB [4] = conditions: MDA-MB
PC3 = experiment: CIMA assay, cell viability, PC3
[5] = tested on: CCD1079SK (fibroblast, noncancerous but proliferating); experiment: CIMA assay, cell viability, CCD1079SK; conditions: CCD
[6] = CIMA assay, cell viability, CCD1079SK; conditions: human, Average cell viability, CCD
MDA-MB [7] = experiment: cells; conditions: Homo sapiens, read-out: Average cell viability, MDA-MB

## CC/C=C\C/C=C\C/C=C\C/C=C\C/C=C\CCCC(=O)OCC(COC1OC(CO)C(O)C(O)C1O)OC(=O)CCC/C=C\C/C=C\C/C=C\C/C=C\C/C=C\CC (stereo not shown) [Compound 7, MGDG C20:5/C20:5]
A549 (lung carcinoma); A549, sample at 1 ug/mL
  A549 AVG: 0.72
A549 (lung carcinoma); A549, sample at 10 ug/mL
  A549 AVG: 0.65
A549 (lung carcinoma); A549, sample at 50 ug/mL
  A549 AVG: 0.64
A549 (lung carcinoma); A549, sample at 100 ug/mL
  A549 AVG: 0.40
A549 (lung carcinoma); A549, 1 ug/mL
  Fold change in viability AVG: 0.72
A549 (lung carcinoma); A549, 10 ug/mL
  Fold change in viability AVG: 0.65
A549 (lung carcinoma); A549, 50 ug/mL
  Fold change in viability AVG: 0.64
A549 (lung carcinoma); A549, 100 ug/mL
  Fold change in viability AVG: 0.40
A549 (lung carcinoma); Homo sapiens, A549, read-out: Average cell viability, A549, 1 ug/mL
  viability at 1 µg/mL: 61%
A549 (lung carcinoma); Homo sapiens, A549, read-out: Average cell viability, A549, 10 ug/mL
  viability at 10 µg/mL: 56%
A549 (lung carcinoma); Homo sapiens, A549, read-out: Average cell viability, A549, 50 ug/mL
  viability at 50 µg/mL: 55%
A549 (lung carcinoma); Homo sapiens, A549, read-out: Average cell viability, A549, 100 ug/mL
  viability at 100 µg/mL: 34%
[1]; Homo sapiens, THP-1, read-out: Average cell viability, THP-1, 1 ug/mL
  viability at 1 µg/mL: 108%
[1]; Homo sapiens, THP-1, read-out: Average cell viability, THP-1, 10 ug/mL
  viability at 10 µg/mL: 102%
[1]; Homo sapiens, THP-1, read-out: Average cell viability, THP-1, 50 ug/mL
  viability at 50 µg/mL: 52%
[1]; Homo sapiens, THP-1, read-out: Average cell viability, THP-1, 100 ug/mL
  viability at 100 µg/mL: 50%
[1]; THP-1, sample at 1 ug/mL
  THP-1 AVG: 1.17
[1]; THP-1, sample at 10 ug/mL
  THP-1 AVG: 1.16
[1]; THP-1, sample at 50 ug/mL
  THP-1 AVG: 0.59
[1]; THP-1, sample at 100 ug/mL
  THP-1 AVG: 0.57
[1]; THP-1, 1 ug/mL
  Fold change in viability AVG: 1.17
[1]; THP-1, 10 ug/mL
  Fold change in viability AVG: 1.16
[1]; THP-1, 50 ug/mL
  Fold change in viability AVG: 0.59
[1]; THP-1, 100 ug/mL
  Fold change in viability AVG: 0.57
[2]; Homo sapiens, U373 MG, read-out: Average cell viability, U373, 1 ug/mL
  viability at 1 µg/mL: 120%
[2]; Homo sapiens, U373 MG, read-out: Average cell viability, U373, 10 ug/mL
  viability at 10 µg/mL: 108%
[2]; Homo sapiens, U373 MG, read-out: Average cell viability, U373, 50 ug/mL
  viability at 50 µg/mL: 6%
[2]; Homo sapiens, U373 MG, read-out: Average cell viability, U373, 100 ug/mL
  viability at 100 µg/mL: 5%
[2]; U373, sample at 1 ug/mL
  U373 AVG: 1.22
[2]; U373, sample at 10 ug/mL
  U373 AVG: 1.10
[2]; U373, sample at 50 ug/mL
  U373 AVG: 0.06
[2]; U373, sample at 100 ug/mL
  U373 AVG: 0.05
[2]; U373, 1 ug/mL
  Fold change in viability AVG: 1.22
[2]; U373, 10 ug/mL
  Fold change in viability AVG: 1.10
[2]; U373, 50 ug/mL
  Fold change in viability AVG: 0.06
[2]; U373, 100 ug/mL
  Fold change in viability AVG: 0.05
[3]; Homo sapiens, SK-OV-3, read-out: Average cell viability, SKOV, 1 ug/mL
  viability at 1 µg/mL: 126%
[3]; Homo sapiens, SK-OV-3, read-out: Average cell viability, SKOV, 10 ug/mL
  viability at 10 µg/mL: 113%
[3]; Homo sapiens, SK-OV-3, read-out: Average cell viability, SKOV, 50 ug/mL
  viability at 50 µg/mL: 95%
[3]; Homo sapiens, SK-OV-3, read-out: Average cell viability, SKOV, 100 ug/mL
  viability at 100 µg/mL: 46%
[3]; SKOV, 1 ug/mL
  Fold change in viability AVG: 1.36
[3]; SKOV, 10 ug/mL
  Fold change in viability AVG: 1.21
[3]; SKOV, 50 ug/mL
  Fold change in viability AVG: 1.02
[3]; SKOV, 100 ug/mL
  Fold change in viability AVG: 0.49
MDA-MB [4]; sample at 1 ug/mL
  MDA-MB AVG: 1.16
MDA-MB [4]; sample at 10 ug/mL
  MDA-MB AVG: 1.13
MDA-MB [4]; sample at 50 ug/mL
  MDA-MB AVG: 0.30
MDA-MB [4]; sample at 100 ug/mL
  MDA-MB AVG: 0.27
MDA-MB [4]; 1 ug/mL
  Fold change in viability AVG: 1.16
MDA-MB [4]; 10 ug/mL
  Fold change in viability AVG: 1.13
MDA-MB [4]; 50 ug/mL
  Fold change in viability AVG: 0.30
MDA-MB [4]; 100 ug/mL
  Fold change in viability AVG: 0.27
PC3; Homo sapiens, PC-3, read-out: Average cell viability, PC3, 1 ug/mL
  viability at 1 µg/mL: 107%
PC3; Homo sapiens, PC-3, read-out: Average cell viability, PC3, 10 ug/mL
  viability at 10 µg/mL: 103%
PC3; Homo sapiens, PC-3, read-out: Average cell viability, PC3, 50 ug/mL
  viability at 50 µg/mL: 14%
PC3; Homo sapiens, PC-3, read-out: Average cell viability, PC3, 100 ug/mL
  viability at 100 µg/mL: 12%
PC3; PC3, sample at 1 ug/mL
  PC3 AVG: 1.11
PC3; PC3, sample at 10 ug/mL
  PC3 AVG: 1.07
PC3; PC3, sample at 50 ug/mL
  PC3 AVG: 0.14
PC3; PC3, sample at 100 ug/mL
  PC3 AVG: 0.13
PC3; PC3, 1 ug/mL
  Fold change in viability AVG: 1.11
PC3; PC3, 10 ug/mL
  Fold change in viability AVG: 1.07
PC3; PC3, 50 ug/mL
  Fold change in viability AVG: 0.14
PC3; PC3, 100 ug/mL
  Fold change in viability AVG: 0.13
[5]; 1 ug/mL
  Fold change in viability AVG: 1.13
[5]; 10 ug/mL
  Fold change in viability AVG: 1.06
[5]; 50 ug/mL
  Fold change in viability AVG: 0.25
[5]; 100 ug/mL
  Fold change in viability AVG: 0.19
[6]; CCD1079SK fibroblast cells (noncancerous, proliferating), 1 ug/mL
  viability at 72 h, 1 ug/mL: 103%
[6]; CCD1079SK fibroblasts (noncancerous, proliferating), 10 ug/mL
  viability at 72 h, 10 ug/mL: 97%
[6]; CCD1079SK fibroblasts (noncancerous, proliferating), 50 ug/mL
  viability at 72 h, 50 ug/mL: 23%
[6]; CCD1079SK fibroblasts (noncancerous, proliferating), 100 ug/mL
  viability at 72 h, 100 ug/mL: 17%
MDA-MB [7]; 1 ug/mL
  viability at 1 µg/mL: 106%
MDA-MB [7]; 10 ug/mL
  viability at 10 µg/mL: 104%
MDA-MB [7]; 50 ug/mL
  viability at 50 µg/mL: 27%
MDA-MB [7]; 100 ug/mL
  viability at 100 µg/mL: 24%

## CCCCCCCCCCCCOS(=O)(=O)[O-].[Na+] [cont-SDS]
A549 (lung carcinoma); A549, 250 ug/ml
  In vitro activity against cancer cell lines, A549 AVG: 0.13
[1]; THP-1, 250 ug/ml
  In vitro activity against cancer cell lines, THP-1 AVG: 0.18
[2]; U373, 250 ug/ml
  In vitro activity against cancer cell lines, U373 AVG: 0.05
[3]; SKOV, 250 ug/ml
  In vitro activity against cancer cell lines, SKOV AVG: 0.10
MDA-MB [4]; 250 ug/ml
  In vitro activity against cancer cell lines, MDA-MB AVG: 0.16
PC3; PC3, 250 ug/ml
  In vitro activity against cancer cell lines, PC3 AVG: 0.08
